Measurements taken from patent US9714228B2, “Dihydrofuran derivatives as insecticidal compounds” (Syngenta Participations AG, priority 2010, dated 2017).

Columns and labels:
Assay type in all cases: in vivo
Tetranychus urticae = assay: Tetranychus urticae, sprayed bean leaf discs; conditions: foliar, 192 h, bean leaf discs sprayed at 200 ppm, mixed ages, checked 8 days later
Excerpt: Tetranychus urticae (Two-Spotted Spider Mite): Bean leaf discs on agar in 24-well microtiter plates were sprayed with test solutions at an application rate of 200 ppm. After drying, the leaf discs are infested with mite populations of mixed ages. 8 days later, discs are checked for egg mortality, larval mortality, and adult mortality.

Myzus persicae = Myzus persicae (sachet), mixed population, sucrose solution; conditions: 120 h, application rate 12.5 ppm, mortality 5 days after infestation
Excerpt: Myzus persicae (Sachet) (Green Peach Aphid) Mixed Population Test compounds were applied by pipette into 24 well plates and mixed with Sucrose solution. The plates were closed with a stretched Parafilm. A plastic stencil with 24 holes is placed onto the plate and infested pea seedlings were placed directly on the Parafilm. The infested plate is closed with a gel blotting paper and another plastic stencil and then turned upside down. 5 days after infestation the samples were checked on mortality. Application rate: 12.5 ppm.

Diabrotica balteata = assay: Diabrotica balteata, L2 larvae on treated artificial diet; conditions: 120 h, 200 ppm (concentration in well 18 ppm), 5 days incubation
Experimental: (§1) Diabrotica balteata (Corn Root Worm): A 24-well microtiter plate (MTP) with artificial diet was treated with test solutions at an application rate of 200 ppm (concentration in well 18 ppm) by pipetting. After drying, the MTPs were infested with L2 larvae (6-10 per well). After an incubation period of 5 days, samples were checked for larval mortality and growth regulation.

Thrips tabaci = assay: Thrips tabaci, sprayed sunflower leaf discs; conditions: foliar, 168 h, sunflower leaf discs sprayed at 200 ppm, mixed ages, mortality after 7 days
Experimental: Thrips tabaci (Onion Thrips): Sunflower leaf discs were placed on agar in a 24-well microtiter plate and sprayed with test solutions at an application rate of 200 ppm. After drying, the leaf discs were infested with an […] population of mixed ages. After an incubation period of 7 days, samples were checked for mortality.

Spodoptera littoralis [1] = assay: Spodoptera littoralis, sprayed cotton leaf discs, L1 larvae; conditions: foliar, 72 h, cotton leaf discs sprayed at 200 ppm, 3 days after treatment
Excerpt: Spodoptera littoralis (Egyptian Cotton Leafworm): Cotton leaf discs were placed on agar in a 24-well microtiter plate and sprayed with test solutions at an application rate of 200 ppm. After drying, the leaf discs were infested with 5 L1 larvae. The samples were checked for mortality, feeding behavior, and growth regulation 3 days after treatment (DAT).

Spodoptera littoralis [2] = assay: Spodoptera littoralis (systemic), salad grown on treated agar, eggs; conditions: 120 h, application rate 12.5 ppm, checked 5 days after infestation (mortality, repellent effect, feeding behavior, growth regulation)
Excerpt: Spodoptera littoralis (Systemic) (Egyptian Cotton Leaf Worm) Test compounds were applied by pipette into 24 well plates and mixed with agar. Salad seeds were placed on the agar and the multi well plate is closed by another plate which contains also agar. After 7 days the roots have absorbed the compound and the salad has grown into the lid plate. The salad leafs were now cut off into the lid plate. Spodoptera eggs were pipette through a plastic stencil on a humid gel blotting paper and the plate closed with it. The samples are checked for mortality, repellent effect, feeding behavior, and growth regulation 5 days after infestation. Application rate: 12.5 ppm

Plutella xylostella = assay: Plutella xylostella, L2 larvae on treated artificial diet; conditions: 144 h, 200 ppm (concentration in well 18 ppm), 6 days incubation
Experimental: as §1, with “Plutella xylostella (Diamond Back Moth):” for “Diabrotica balteata (Corn Root Worm): A”, “(7-12” for “(6-10”, “6” for “5”

Heliothis virescens = assay: Heliothis virescens, eggs on treated artificial diet; conditions: 96 h, 200 ppm (concentration in well 18 ppm), 4 days incubation
Experimental: Heliothis virescens (Tobacco Budworm): Eggs (0-24 h old) were placed in 24-well microtiter plate on artificial diet and treated with test solutions at an application rate of 200 ppm (concentration in well 18 ppm) by pipetting. After an incubation period of 4 days, samples were checked for egg mortality, larval mortality, and growth regulation.

Cc1cc(C2=COC(c3cc(Cl)cc(Cl)c3)(C(F)(F)F)C2)ccc1C(=O)NC1CSC1 (stereo not drawn) [Compound D21]
≥ 80%: pest or weed control at 200 ppm (Tetranychus urticae) | pest or weed control at 12.5 ppm (Myzus persicae) | pest or weed control at 200 ppm (Diabrotica balteata) | pest or weed control at 200 ppm (Thrips tabaci) | pest or weed control at 200 ppm (Spodoptera littoralis [1]) | pest or weed control at 12.5 ppm (Spodoptera littoralis [2]) | pest or weed control at 200 ppm (Plutella xylostella) | pest or weed control at 200 ppm (Heliothis virescens)

Cc1cc(C2=COC(c3cc(Cl)cc(Cl)c3)(C(F)(F)F)C2)ccc1C(=O)NC1C[S+]([O-])C1 (stereo not drawn) [Compound D20]
≥ 80%: pest or weed control at 200 ppm (Tetranychus urticae) | pest or weed control at 12.5 ppm (Myzus persicae) | pest or weed control at 200 ppm (Diabrotica balteata) | pest or weed control at 200 ppm (Thrips tabaci) | pest or weed control at 200 ppm (Spodoptera littoralis [1]) | pest or weed control at 12.5 ppm (Spodoptera littoralis [2]) | pest or weed control at 200 ppm (Plutella xylostella) | pest or weed control at 200 ppm (Heliothis virescens)

Cc1cc(C2=COC(c3cc(Cl)cc(Cl)c3)(C(F)(F)F)C2)ccc1C(=O)NC1CS(=O)(=O)C1 (stereo not drawn) [Compound D24, 4-[5-(3,5-Dichloro-phenyl)-5-trifluoromethyl-4,5-dihydro-furan-3-yl]-N-(1,1-dioxo-1lambda*6*-thietan-3-yl)-2-methyl-benzamide]
≥ 80%: pest or weed control at 200 ppm (Tetranychus urticae) | pest or weed control at 12.5 ppm (Myzus persicae) | pest or weed control at 200 ppm (Diabrotica balteata) | pest or weed control at 200 ppm (Thrips tabaci) | pest or weed control at 200 ppm (Spodoptera littoralis [1]) | pest or weed control at 12.5 ppm (Spodoptera littoralis [2]) | pest or weed control at 200 ppm (Plutella xylostella) | pest or weed control at 200 ppm (Heliothis virescens)
